From US20160108414A1, “GROWTH-RELATED ENOX PROTEINS FROM PLANTS WITH YIELD ENHANCEMENT POTENTIAL, SEQUENCES AND METHODS” (Mor-NuCo Enterprises, Inc., priority 2013, published 2016)
Values joined by “and” are separate entries in the source; they are usually repeats but may differ in a detail not shown here. Equal values may be shown once.

Assays:
recombinant ABP-20 = target: T1, recombinant ABP-20 (Prunus persica, UniProt O04011, DUP151-151); assay: NADH oxidase activity of IEF-purified recombinant ABP-20 (dNOX); assay type: biochemical
T1 construct: made in house; host or cells: E. coli BL21 (DE3), pET11b
T1 sequence (O04011 other isoform, or with tags, fused parts or gaps DUP151-151): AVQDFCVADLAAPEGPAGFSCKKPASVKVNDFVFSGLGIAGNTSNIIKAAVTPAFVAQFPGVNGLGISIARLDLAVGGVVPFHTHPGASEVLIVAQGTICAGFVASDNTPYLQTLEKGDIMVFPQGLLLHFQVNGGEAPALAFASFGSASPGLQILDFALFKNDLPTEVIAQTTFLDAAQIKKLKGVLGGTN
Experimental: (§1) Oxidation of NADH was determined spectrophotometrically from the disappearance of NADH measured at 340 nm in a reaction mixture containing 25 mM Tris-MES (pH 7.2), 100 μM GSH, 1 mM KCN to inhibit mitochondrial oxidase activity, 150 μM NADH and the enzyme at 37° C. with temperature control (±0.5° C.) and stirring. Prior to assay, 1 μM reduced glutathione was added to reduce the protein in the presence of substrate. After 10 min, 0.03% hydrogen peroxide was added to reoxidize the protein under renaturing conditions and in the presence of substrate to start the reaction. Activities were measured using paired Hitachi U3210 or paired SLM Aminco 2000 spectrophotometers both with continuous recording. Assays were run for 1 min and were repeated on the same sample at intervals of 1.5 min for the times indicated. An extinction coefficient of 6.22 cm^−1 mM^−1 was used to determine specific activity.
Cells were centrifuged at 5,000 g for 6 min. Pellets were then resuspended in 20 mM Tris-HCl, pH 8.0, containing 0.5 mM PMSF, 1 mM benzamidine and 1 mM 6-aminocaproic and lysed by three passages through a French pressure cell (SLM Aminco) at 20,000 psi. Expression of the recombinant ABP-20 of about 20 kDa was confirmed by SDS-PAGE with silver staining. Transformed cells were stored at −80° C. in a standard glycerol stock solution. The recombinant proteins were further purified on Criterion IEF gels (Bio-Rad, Hercules, Calif.). The IEF gel was cut into seven equal segments. The pH represented by each slice was based on IEF standards (Bio-Rad). The slices were soaked in 15 mM Tris-Mes buffer, pH 7, at 4° C. for overnight with shaking. The gel-free extracts were assayed for ENOX activities as follows: […]

dNOX of soybean = assay: Stimulation of NOX activity of soybean plasma membranes (dNOX of soybean); assay type: biochemical; settings: 1 μM
[1] = tested on: recombinant Arabidopsis ENOX1; assay: NADH oxidase activity of IEF-purified recombinant Arabidopsis ENOX1; assay type: biochemical
Experimental: Cells were centrifuged at 5,000 g for 6 min. Pellets were then resuspended in 20 mM Tris-HCl, pH 8.0, containing 0.5 mM PMSF, 1 mM benzamidine and 1 mM 6-aminocaproic and lysed by three passages through a French pressure cell (SLM Aminco) at 20,000 psi. Expression of the recombinant Arabidopsis ENOX1 of about 14 kDa was confirmed by SDS-PAGE with silver staining. Transformed cells were stored at −80° C. in a standard glycerol stock solution. The Arabidopsis ENOX1 proteins were further purified on Criterion IEF gels (Bio-Rad, Hercules, Calif.). The IEF gel was cut into seven equal segments. The pH represented by each slice was based on IEF standards (Bio-Rad). The slices were soaked in 15 mM Tris-Mes buffer, pH 7, at 4° C. for overnight with shaking. The gel-free extracts were assayed for ENOX1 activity.
as §1
IEF purified ENOX1 was concentrated to 0.7 mg/ml by using a Centricon concentrator (Millipore Corporation, Danvers, Mass.) fitted with a 10,000 nominal molecular weight limit ultracel YM membrane. Samples (50 μl) were combined with 1 μl of trifluoroacetic acid (TFA) in the presence or absence of 15 μl 10 mM bathocuproine. After 2 h of incubation at room temperature, the samples were dialyzed (Spectra/Pro Dialysis membrane, molecular weight cut-off 6-8,000, Spectrum Laboratories (Rancho Dominguez, Calif.) against 20 mM Tris-HCl, pH 8, at 4° C. overnight.

recombinant human ENOX2 = target: T2, recombinant human ENOX2 (Homo sapiens, UniProt Q16206); assay: Inhibition of recombinant human ENOX2 assayed in parallel; assay type: biochemical; settings: read-out: inhibition of recombinant human ENOX2
T2 sequence (Q16206 1-610): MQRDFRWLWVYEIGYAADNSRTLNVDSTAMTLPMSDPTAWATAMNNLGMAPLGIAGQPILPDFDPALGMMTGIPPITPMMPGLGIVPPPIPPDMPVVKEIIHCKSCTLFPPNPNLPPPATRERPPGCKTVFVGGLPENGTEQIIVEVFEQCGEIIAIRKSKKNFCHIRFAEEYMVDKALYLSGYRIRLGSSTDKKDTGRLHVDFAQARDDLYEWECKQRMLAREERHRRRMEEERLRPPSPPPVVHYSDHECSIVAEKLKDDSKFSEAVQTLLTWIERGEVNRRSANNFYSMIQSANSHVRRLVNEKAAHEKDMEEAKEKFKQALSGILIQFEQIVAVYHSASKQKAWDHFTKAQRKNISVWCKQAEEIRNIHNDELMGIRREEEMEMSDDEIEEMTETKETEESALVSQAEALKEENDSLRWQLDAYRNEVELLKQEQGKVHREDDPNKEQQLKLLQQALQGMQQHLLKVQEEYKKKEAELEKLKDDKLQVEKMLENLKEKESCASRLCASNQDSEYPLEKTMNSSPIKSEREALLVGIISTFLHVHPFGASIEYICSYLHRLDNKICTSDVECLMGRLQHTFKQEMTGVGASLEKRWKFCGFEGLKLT
Source text: Simalikalactone D is a general ENOX1 inhibitor.

plasma membrane ENOX1 = assay: Plasma membrane ENOX1 activity with added cysteine; assay type: biochemical, soybean; settings: for ENOX1: +100 μM cysteine
soybean shoots = assay: Shoot growth of excised soybean shoots in TR-III solutions; assay type: in vivo; settings: narrow range, FIG. 18
Source text: FIG. 18. As in FIG. 17, except untreated seeds were germinated and excised shoots were transferred to TR-III solutions of different concentrations prepared in water.

375 NR soybeans = assay: TR-III spray, greenhouse soybeans, plant height above cotyledons; assay type: in vivo, soybean; set-up: Plant height above cotyledons: unit not given beside the values; settings: for Plant height above cotyledons: single experiments, 10 days after spraying
soybeans = assay: Soybean field experiment with TR-III foliar spray, standability; assay type: in vivo; settings: 0.01 lb/A foliar spray; No TR-III plants severely lodged
Source text: FIG. 21. Pods per plant of soybeans in a field experiment comparing no TR-III (solid symbols) with 0.01 lb/A TR-III (open symbols, dashed lines) as a foliar spray applied July 3. FIG. 23. Standability of soybeans from the field experiment of FIG. 21. No TR-III plants (left) were severely lodged.

soybean plants = assay: TR-III spray, greenhouse soybeans from untreated seed, epicotyl enlargement; assay type: in vivo
Source text: FIG. 20. As in FIG. 19, except plants were from untreated seed and sprayed with different rates of TR-III.

dNOX (ABP-20) [2] = target: T3, dNOX (ABP-20) (Prunus persica, UniProt O04011, C44A/DUP151-151); assay: DTDP (protein disulfide-thiol) interchange of dNOX (ABP-20) site-directed mutants; assay type: biochemical; settings: versus wild type
T3 construct: made in house; host or cells: E. coli BL21 (DE3), pET11b (as for the unmodified protein; not repeated for the mutants)
T3 sequence (O04011 other isoform, or with tags, fused parts or gaps C44A/DUP151-151): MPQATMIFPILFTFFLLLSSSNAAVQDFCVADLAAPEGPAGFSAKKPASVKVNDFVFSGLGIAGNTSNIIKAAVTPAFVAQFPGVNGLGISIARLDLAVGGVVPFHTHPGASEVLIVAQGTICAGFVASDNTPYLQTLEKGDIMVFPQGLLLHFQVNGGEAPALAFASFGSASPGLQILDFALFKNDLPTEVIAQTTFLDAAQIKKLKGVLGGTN
Experimental: (§2) Protein disulfide-thiol interchange was determined spectrophotometrically from the increase in absorbance at 340 nm resulting from the cleavage of dithiodipyridine (DTDP (Morré, D. J., Gomez-Rey, M. L., Schramke, C., Em, O., Lawler, J., Hobeck, J. and Morré, D. M. 1999. Mol. Cell. Bochem. 200: 7-13). DTDP cleavage was buffered (50 mM Tris-MES, pH 7). The assay was preincubated (1 h at room temperature) with 0.5 μmoles 2,2′-dithiodipyridine (DTDP) in 5 μl of DMSO to react with endogenous reductants present with the plasma membranes. After 10 min, a further […] DTDP were added in 35 μl DMSO to start the reaction. The final reaction volume was […]. The reaction was monitored from the increase in absorbance at 340 nm. Specific activities were calculated using a milimolar absorption coefficient of 6.21.
(§3) Amino acids indicated were replaced by alanines by site-directed mutagenesis according to Braman et al. (Braman, J., Papworth, C. and Greener, A. 1996. Methods Mol. Biol. 57:32-44). Numbered amino acids and nucleotide positions of splice variant products refer to numbers assigned to amino acids of the full length transcript

dNOX (ABP-20) [3] = assay: as above; assay type: biochemical
Experimental: as §2, §3

dNOX (ABP-20) [4] = target: T3, dNOX (ABP-20); assay: NADH oxidation of dNOX (ABP-20) site-directed mutants; assay type: biochemical; settings: versus wild type
Experimental: as §1, §3

dNOX (ABP-20) [5] = assay: as above; assay type: biochemical
Experimental: as §1, §3

O=C(O)COc1ccc(Cl)cc1Cl [2,4-dichlorophenoxyacetic acid]
average specific activity (recombinant ABP-20; 1 μM auxin, IEF-purified fractions): ~0.6±0.2 μmoles/min/mg protein
NADH oxidase activity (recombinant ABP-20; addition 1 μM, average of 3 determinations ± SD, None = 0.1 ± 0.08): 0.8 ± 0.2 µmol/min/mg
optimum concentration for activation (recombinant ABP-20; higher concentration less effective): about 1 μM
stimulation of NOX activity of soybean plasma membranes (dNOX) (dNOX of soybean): approximately two-fold
NADH oxidase activity ([1]; addition 1 μM, average of 3 determinations ± SD, None = 2.7 ± 0.4): 3.7 ± 0.1 µmol/min/mg
Effect on ENOX1 activity eluted from the IEF gel ([1]; concentrations of Table 5): without effect

Oc1ccc(C2=Cc3ccc(O)cc3OC2)cc1 [Phenoxodiol]
inhibition at 10 µM (recombinant human ENOX2): > 90%

N[C@@H](CS)C(=O)O [TR-III, cysteine]
response of plasma membrane ENOX1 activity to added cysteine (plasma membrane ENOX1; 100 μM, both ST-109-2-4 and Williams 82): about 12%
ENOX1 (plasma membrane ENOX1; plasma membranes of Williams 82 ISU, −cysteine 0.060 ± 0.003): 0.072 ± 0.003 μmoles/min/mg protein
ENOX1 (plasma membrane ENOX1; plasma membranes of transgenic ST-109-2-4, −cysteine 0.110 ± 0.004): 0.123 ± 0.005 μmoles/min/mg protein
concentration range stimulating shoot growth (soybean shoots): around 10^−7 M
Plant height above cotyledons, Ave + MAD (375 NR soybeans; spray 0.001 lb/A, 0 lb/A: 13.6 ± 0.3): 14.7 ± 0.1
Plant height above cotyledons (375 NR soybeans; spray 0.001 lb/A, 0 lb/A: 13.3, 13.9): 14.8 and 14.6
Plant height above cotyledons, Ave + MAD (375 NR soybeans; spray 0.01 lb/A): 14.4 ± 0.1
Plant height above cotyledons (375 NR soybeans; spray 0.01 lb/A): 14.3 and 14.5
Plant height above cotyledons, Ave + MAD (375 NR soybeans; spray 0.1 lb/A): 15.2 ± 0.7
Plant height above cotyledons (375 NR soybeans; spray 0.1 lb/A): 14.4 and 15.9
Standability (lodging) (soybeans): did not lodge
Epicotyl enlargement (soybean plants; spray 0.001 or 0.1 lb/A): little or no effect
Epicotyl enlargement (soybean plants; spray 0.01 lb/A): Epicotyl enlargement was observed
Stimulation of NADH oxidation ([1]; recombinant protein expressed in bacteria, FIG. 14): specific for maximum (3)

B1: C44A: ABP-20 with C44 replaced by alanine (CKK motif) (protein, UniProt O04011 24-214, looked up, variant C44A)
Auxin-binding protein ABP20: AVQDFCVADLAAPEGPAGFSAKKPASVKVNDFVFSGLGIAGNTSNIIKAAVTPAFVAQFPGVNGLGISIARLDLAVGGVVPFHTHPGASEVLIVAQGTICAGFVASDNTPYLQTLEKGDIMVFPQGLLHFQVNGGEAPALAFASFGSASPGLQILDFALFKNDLPTEVIAQTTFLDAAQIKKLKGVLGGTN
reduction of protein disulfide-dithiol interchange activity (dNOX (ABP-20) [2]): 81%
DTDP Interchange (dNOX (ABP-20) [3]): 0.02 ± 0.01 μmoles/min/mg protein
reduction of NADH oxidation activity (dNOX (ABP-20) [4]): 81%
NADH Oxidation (dNOX (ABP-20) [5]): 0.15 ± 0.05 μmoles/min/mg protein
